In ChEMBL document CHEMBL1201862, “PubChem BioAssay data set” (2004):
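Growth conditions: 96-well plates. Treatment: test compound, 48 hours, 5 concentrations. Analysis: linear interpolation between bracketing concentrations; unreached endpoints set to highest concentration. GI50: concentration for 50% inhibition of growth.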 Active and inactive are the calls of the source. Cut-off read from the data, not from the text of the source: active = GI50 up to about 1.1 µM and inactive = higher.

What was measured:
Experiment in all cases: NCI tumour cell line growth inhibition, 48 h
[1] = test system: XF498
[2] = test system: M19-MEL
[3] = test system: RXF 631
[4] = test system: DLD-1
[5] = test system: DMS-273
[6] = test system: DMS-114
[7] = test system: KM-20L2
[8] = test system: HOP-18
[9] = test system: LXFL 529

Measured: GI50

CCC1CCC2CCCC(C)N12 (configuration not stated)
inactive: [1] > 100 µM | [2] > 100 µM | [3] > 100 µM | [4] > 100 µM | [5] > 100 µM | [6] > 100 µM | [7] > 100 µM | [8] > 100 µM | [9] > 100 µM

[O-][S+]1Cc2ccccc2CSS1 (configuration not stated)
inactive: [1] 19.7 µM | [2] 20.2 µM | [3] 19.8 µM | [4] 18.1 µM | [5] 11.8 µM | [6] 17.2 µM | [7] 16.9 µM | [8] 27.9 µM | [9] 14.1 µM

N#CC(/C(=N/NC(N)=S)C(=O)Nc1cccc(Cl)c1)c1ccccc1 (configuration not stated)
inactive: [1] > 100 µM | [2] > 100 µM | [3] > 100 µM | [4] > 100 µM | [5] > 100 µM | [6] > 100 µM | [7] > 100 µM | [8] > 100 µM | [9] > 100 µM
